Where a name gives a salt, the structure may show the parent alone. Read-outs that look alike come from different tables or passages of the source.
How the values were obtained:
[1] = molecular target: T1, HIV-RT enzyme (HIV-1 reverse transcriptase) (Human immunodeficiency virus type 1 group M subtype B, UniProt P03366); experiment: HIV-1 Reverse Transcriptase Assay Inhibitor IC50 Determination (RNA-dependent DNA polymerase activity, SPA); type: biochemical
T1 construct: Reactions were initiated by the addition of 30 μl of the HIV-RT enzyme
Description: HIV-1 Reverse Transcriptase Assay Inhibitor IC50 Determination
RNA-dependent DNA polymerase activity was measured using a biotinylated primer oligonucleotide and tritiated dNTP substrate. Newly synthesized DNA was quantified by capturing the biotinylated primer molecules on streptavidin coated Scintillation Proximity Assay (SPA) beads (Amersham). […] The biotinylated DNA primer was obtained from the Integrated DNA Technologies Inc. and the RNA template was synthesized by Dharmacon. […] Reactions were initiated by the addition of 30 μl of the HIV-RT enzyme (final concentrations of […]). Protein concentrations were adjusted to provide linear product formation for at least 30 min of incubation. After incubation at 30° for 30 min, the reaction was quenched by addition of 50 μl of 200 mM EDTA (pH 8.0) and 2 mg/ml SA-PVT SPA beads (Amersham, RPNQ0009, reconstituted in 20 mM Tris-HCl, pH 8.0, 100 mM EDTA and 1% BSA). The beads were left to settle overnight and the SPA signals were counted in a 96-well top counter-NXT (Packard). IC50 values were obtained by sigmoidal regression analysis using GraphPad Prism 3.0 (GraphPad Software, Inc.).

[2] = RNA-dependent DNA polymerase activity, SPA, 30 min at 30°, read-out: HIV-RT IC50

| Molecule | IC50 [1, 2] | melting point | IC50 [1] |
| --- | --- | --- | --- |
| 2-[3-(3-Chloro-5-cyano-phenoxy)-4-cyclopropyl-2-fluoro-phenoxy]-N-(2-chloro-4-sulfamoyl-phenyl)-acetamide [I-9] | 7.7 nM |  |  |
| 2-[4-Bromo-3-(3-chloro-5-cyano-phenoxy)-2-fluoro-phenoxy]-N-[2-chloro-4-(2,4-dioxo-imidazolidin-1-yl)-phenyl]-acetamide [I-30] | 15.5 nM |  |  |
| 2-[4-Chloro-3-(3,5-dicyano-phenoxy)-2-fluoro-phenoxy]-N-(2-methyl-4-sulfamoyl-phenyl)-acetamide [I-14] | 6.4 nM |  |  |
| CCC(=O)NS(=O)(=O)c1ccc(NC(=O)COc2ccc(Br)c(Oc3cc(Cl)cc(C#N)c3)c2F)c(Cl)c1 (as salt: Na) [I-23] |  | 261 to 264 °C |  |
| CCC(=O)NS(=O)(=O)c1ccc(NC(=O)COc2ccc(Br)c(Oc3cc(Cl)cc(C#N)c3)c2F)c(C)c1 (as salt: Na) [I-24] |  | 268.1 to 270 °C |  |
| N#Cc1cc(Cl)cc(Oc2c(Cl)ccc(OCC(=O)Nc3ccc(S(N)(=O)=O)cc3Cl)c2F)c1 [I-1, 2-[4-Chloro-3-(3-chloro-5-cyano-phenoxy)-2-fluoro-phenoxy]-N-(2-chloro-4-sulfamoyl-phenyl)-acetamide] | 16.2 nM | 233.3 to 247.6 °C |  |
| Cc1cc(S(N)(=O)=O)ccc1NC(=O)COc1ccc(Cl)c(Oc2cc(Cl)cc(C#N)c2)c1F [I-2] | 12.8 nM | 209.9 to 212 °C |  |
| Cc1cc(S(N)(=O)=O)ccc1NC(=O)COc1ccc(Br)c(Oc2cc(Cl)cc(C#N)c2)c1F [I-4, 2-[4-Bromo-3-(3-chloro-5-cyano-phenoxy)-2-fluoro-phenoxy]-N-(2-methyl-4-sulfamoyl-phenyl)-acetamide] | 6.5 nM | 226 to 228.8 °C |  |
| N#Cc1cc(Cl)cc(Oc2c(Br)ccc(OCC(=O)Nc3ccc(S(N)(=O)=O)cc3Cl)c2F)c1 [I-5] | 18.7 nM | 250.9 to 252.3 °C |  |
| CCc1ccc(OCC(=O)Nc2ccc(S(N)(=O)=O)cc2C)c(F)c1Oc1cc(Cl)cc(C#N)c1 [I-6, 2-[3-(3-Chloro-5-cyano-phenoxy)-4-ethyl-2-fluoro-phenoxy]-N-(2-methyl-4-sulfamoyl-phenyl)-acetamide] | 8.4 nM | 188 to 189.6 °C |  |
| CCc1ccc(OCC(=O)Nc2ccc(S(N)(=O)=O)cc2Cl)c(F)c1Oc1cc(Cl)cc(C#N)c1 [I-7] | > 10000 nM |  |  |
| N#Cc1cc(Cl)cc(Oc2c(C3CC3)ccc(OCC(=O)Nc3ccc(S(N)(=O)=O)cc3Cl)c2F)c1 [I-8] | 18.3 nM | 210 to 211 °C |  |
| N#Cc1cc(Cl)cc(Oc2cc(OCC(=O)Nc3ccc(S(N)(=O)=O)cc3Cl)ccc2Cl)c1 [I-10] | 7.4 nM | 217 to 219 °C |  |
| COc1cc(C#N)cc(Oc2c(Cl)ccc(OCC(=O)Nc3ccc(S(N)(=O)=O)cc3C)c2F)c1 [I-11] | 3.1 nM | 122 to 123.2 °C |  |
| COc1cc(C#N)cc(Oc2c(Cl)ccc(OCC(=O)Nc3ccc(S(N)(=O)=O)cc3Cl)c2F)c1 [I-12] | 8.2 nM | 211 to 212 °C |  |
| Cc1cc(S(N)(=O)=O)ccc1NC(=O)COc1ccc(Cl)c(Oc2cc(C#N)cc(C#N)c2)c1F [I-13] | 3.8 nM | 264.5 to 265.2 °C |  |
| Cc1cc(S(N)(=O)=O)ccc1NC(=O)COc1ccc(Cl)c(Oc2cc(Cl)cc(C#N)c2)c1 [I-15, 2-[4-Chloro-3-(3-chloro-5-cyano-phenoxy)-phenoxy]-N-(2-methyl-4-sulfamoyl-phenyl)-acetamide] | 6.5 nM |  |  |
| COc1cc(C#N)cc(Oc2c(Br)ccc(OCC(=O)Nc3ccc(S(N)(=O)=O)cc3C)c2F)c1 [I-16] | 5.1 nM | 220 to 223.3 °C |  |
| COc1cc(C#N)cc(Oc2c(Br)ccc(OCC(=O)Nc3ccc(S(N)(=O)=O)cc3Cl)c2F)c1 [I-17] | 12.6 nM | 213.9 to 217.9 °C |  |
| Cc1cc(S(N)(=O)=O)ccc1NC(=O)COc1ccc(Cl)c(Oc2cc(Br)cc(C#N)c2)c1F [I-18] | 6.6 nM | 234.9 to 236.6 °C |  |
| N#Cc1cc(Br)cc(Oc2c(Cl)ccc(OCC(=O)Nc3ccc(S(N)(=O)=O)cc3Cl)c2F)c1 [I-19] | 14.9 nM | 242.2 to 244.9 °C |  |
| CCc1cc(C#N)cc(Oc2c(Cl)ccc(OCC(=O)Nc3ccc(S(N)(=O)=O)cc3Cl)c2F)c1 [I-20, 2-[4-Chloro-3-(3-cyano-5-ethyl-phenoxy)-2-fluoro-phenoxy]-N-(2-chloro-4-sulfamoyl-phenyl)-acetamide] | 31.7 nM |  |  |
| N#Cc1cc(C#N)cc(Oc2c(Br)ccc(OCC(=O)Nc3ccc(S(N)(=O)=O)cc3Cl)c2F)c1 [I-21] | 19.1 nM | 255 to 257 °C |  |
| CCC(=O)NS(=O)(=O)c1ccc(NC(=O)COc2ccc(Br)c(Oc3cc(Cl)cc(C#N)c3)c2F)c(Cl)c1 [I-23] | 4.8 nM |  |  |
| CCC(=O)NS(=O)(=O)c1ccc(NC(=O)COc2ccc(Br)c(Oc3cc(Cl)cc(C#N)c3)c2F)c(C)c1 [I-24] | 5.7 nM |  |  |
| N#Cc1cc(Oc2c(Cl)ccc(OCC(=O)Nc3ccc(S(N)(=O)=O)cc3Cl)c2F)cc(C2CC2)c1 [I-26] | 66.5 nM | 219 to 221 °C |  |
| N#Cc1cc(Cl)cc(Oc2c(Cl)ccc(OCC(=O)Nc3ccc(C(=O)O)cc3Cl)c2F)c1 [I-27, 3-Chloro-4-{2-[4-chloro-3-(3-chloro-5-cyano-phenoxy)-2-fluoro-phenoxy]-acetylamino}-benzoic acid] | 6.1 nM |  |  |
| Cc1cc(C(N)=O)ccc1NC(=O)COc1ccc(Br)c(Oc2cc(Cl)cc(C#N)c2)c1F [I-28, 4-{2-[4-Bromo-3-(3-chloro-5-cyano-phenoxy)-2-fluoro-phenoxy]-acetylamino}-3-methyl-benzamide] | 6.9 nM | 250.6 to 252.5 °C |  |
| CC(C)(O)C#Cc1ccc(NC(=O)COc2ccc(Br)c(Oc3cc(Cl)cc(C#N)c3)c2F)c(Cl)c1 [I-31, 2-[4-Bromo-3-(3-chloro-5-cyano-phenoxy)-2-fluoro-phenoxy]-N-[2-chloro-4-(3-hydroxy-3-methyl-but-1-ynyl)-phenyl]-acetamide] |  |  | 82.1 nM |
| CC(C)(N)C#Cc1ccc(NC(=O)COc2ccc(Cl)c(Oc3cc(Cl)cc(C#N)c3)c2F)c(Cl)c1 [I-32, N-[4-(3-Amino-3-methyl-but-1-ynyl)-2-chloro-phenyl]-2-[4-chloro-3-(3-chloro-5-cyano-phenoxy)-2-fluoro-phenoxy]-acetamide] | 21.4 nM |  |  |

Source: patent US20080020981A1, “Non-nucleoside reverse transcriptase inhibitors” (Roche Palo Alto LLC, priority 2006, published 2008)
